We go through eight compounds from patent US20100063032A1, “SUBSTITUTED PYRIDO[2,3-D]PYRIMIDINE DERIVATIVES AS CANNABINOID-1 RECEPTOR MODULATORS” (priority 2007, published 2010).

Molecules are shown by their SMILES.

The target in test [1] is recombinant human CB1 receptor expressed in CHO cells (Homo sapiens, UniProt P21554). The test can be described thus: Cannabinoid Receptor-1 (CB1) Functional Activity Assay (intracellular cAMP, forskolin). It counts as cell-based. The note with it: for EC50: cAMP level with forskolin; for functional mode at CB1 receptor: cAMP, Biological Example 3. As for the experimental part:
The functional activation of CB1 receptor is based on recombinant human CB1 receptor expressed in CHO cells (Felder et al, Mol. Pharmacol. 48: 443-450, 1995). To determine the agonist activity or inverse agonist activity of any test compound, 50 ul of CB1-CHO cell suspension are mixed with test compound and 70 ul assay buffer containing 0.34 mM 3-isobutyl-1-methylxanthine and 5.1 uM of forskolin in 96-well plates. The assay buffer is comprised of Earle's Balanced Salt Solution supplemented with 5 mM MgCl2, 1 mM glutamine, 10 mM HEPES, and 1 mg/mL bovine serum albumin. The mixture is incubated at room temperature for 30 minutes, and terminated by adding 30 ul/well of 0.5M HCl. The total intracellular cAMP level is quantitated using the New England Nuclear Flashplate and cAMP radioimmunoassay kit.
To determine the antagonist activity of test compound, the reaction mixture also contains 0.5 nM of the agonist CP55940 (or 50 nM of methanandamide), and the reversal of the CP55940 (or methanandamide) effect is quantitated with increasing concentration of the test compound. Intracellular cAMP is determined as described above. An IC50 value for the test compound is calculated from the titration curve.
Alternatively, a series of dose response curves for the agonist CP55940 (or methanandamide) is performed with increasing concentration of the test compound in each of the dose response curves, and a Schild analysis is carried to calculate the Kb value which is an estimation of test compound binding affinity.
A general note: Changes in cAMP serve as a functional read-out for many G protein-coupled receptors.

Test [2] has as its target recombinant human CB1 receptor (Homo sapiens, UniProt P21554). The test can be described thus: Cannabinoid Receptor-1 (CB1) Binding Assay ([3H]CP-55940 displacement). The note with it: recombinant human CB1 in CHO cell membranes, 0.6 nM [3H]CP-55940. How it is done: Binding affinity determination is based on recombinant human CB1 receptor expressed in Chinese Hamster Ovary (CHO) cells (Felder et al, Mol. Pharmacol. 48: 443-450, 1995). Total assay volume is 250 μl (240 μl CB1 receptor membrane solution plus 5 μl test compound solution plus 5 μl [3H]CP-55940 solution). Final concentration of [3H]CP-55940 is 0.6 nM. Binding buffer contains 50 mM Tris-HCl, pH 7.4, 2.5 mM EDTA, 5 mM MgCl28, 0.5 mg/mL fatty acid free bovine serum albumin and protease inhibitors (Cat#P8340, from Sigma). To initiate the binding reaction, 5 μl of radioligand solution is added, the mixture is incubated with gentle shaking on a shaker for 1.5 h at 30° C. The binding is terminated by using 96-well harvester and filtering through GF/C filter presoaked in 0.05% polyethylenimine. The bound radiolabel is quantitated using scintillation counter. Apparent binding affinities for various compounds are calculated from IC50 values (DeBlasi et al., Trends Pharmacol Sci 10: 227-229, 1989).

Sequence of recombinant human CB1 receptor expressed in CHO cells (P21554 whole entry): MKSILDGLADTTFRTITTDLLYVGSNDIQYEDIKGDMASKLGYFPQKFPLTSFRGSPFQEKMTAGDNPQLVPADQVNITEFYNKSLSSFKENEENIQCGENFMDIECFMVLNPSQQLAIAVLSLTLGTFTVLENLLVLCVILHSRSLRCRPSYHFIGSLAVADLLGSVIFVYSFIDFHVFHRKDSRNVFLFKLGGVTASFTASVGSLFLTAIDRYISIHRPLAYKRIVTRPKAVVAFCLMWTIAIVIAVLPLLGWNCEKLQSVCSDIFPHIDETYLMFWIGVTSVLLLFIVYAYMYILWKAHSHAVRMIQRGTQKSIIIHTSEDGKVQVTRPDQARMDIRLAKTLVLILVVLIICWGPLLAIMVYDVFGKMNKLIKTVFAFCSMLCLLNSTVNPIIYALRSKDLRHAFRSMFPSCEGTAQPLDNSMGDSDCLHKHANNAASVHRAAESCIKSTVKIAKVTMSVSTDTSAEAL
Sequence of recombinant human CB1 receptor (P21554 whole entry): as above

As usually defined, the EC50 is the concentration giving half of the maximal effect. The term IC50 denotes the concentration that inhibits the measured activity by half. Consider `CC(C)(C)c1nc(N)c2cc(-c3ccc(Cl)cc3)c(-c3ccc(Cl)cc3Cl)nc2n1` [Example 3, 2-Tert-butyl-6-(4-chlorophenyl)-7-(2,4-dichlorophenyl)pyrido[2,3-d]pyrimidin-4-amine], for which, in test [1], the EC50 is less than 15 nM and the “functional mode at CB1 receptor” value is “functional inverse agonists”. Also, in test [2], the IC50 worked out at 11 nM.
Taken in the same sequence, the figures for `CC(C)(C)c1nc2nc(-c3ccccc3Cl)c(-c3ccc(Cl)cc3)cc2c(=O)[nH]1` [Example 11, 2-Tert-butyl-7-(2-chlorophenyl)-6-(4-chlorophenyl)pyrido[2,3-d]pyrimidin-4(3H)-one] were less than 15 nM, “functional inverse agonists” and 7 nM.
Take `CC(C)(C)c1nc2nc(-c3ccc(-c4cn[nH]c4)cc3Cl)c(-c3ccc(Cl)cc3)cc2c(=O)[nH]1` [Example 25, 2-Tert-butyl-6-(4-chlorophenyl)-7-[2-chloro-4-(1H-pyrazol-4-yl)phenyl]pyrido[2,3-d]pyrimidin-4(3H)-one]: in test [1], the EC50 was less than 15 nM and the “functional mode at CB1 receptor” value is “functional inverse agonists”. The IC50 in test [2] worked out at 10 nM.
On to `CC(C)(C)Nc1nc(C(C)(C)C)nc2nc(-c3ccccc3Cl)c(-c3ccc(Cl)cc3)cc12` [Example 48, N,2-Di-tert-butyl-7-(2-chlorophenyl)-6-(4-chlorophenyl)pyrido[2,3-d]pyrimidin-4-amine], for which, in test [1], the EC50 is less than 15 nM and the “functional mode at CB1 receptor” value is “functional inverse agonists”. Also, the half-maximal inhibitory concentration (IC50) in test [2] turned out to be 3 nM.
Taken in the same sequence, the figures for `CC(C)(C)c1nc(NCC(F)(F)F)c2cc(-c3ccc(Br)cc3)c(-c3ccccc3Cl)nc2n1` [Example 58, 6-(4-Bromophenyl)-2-tert-butyl-7-(2-chlorophenyl)-N-(2,2,2-trifluoroethyl)pyrido[2,3-d]pyrimidin-4-amine] were less than 15 nM, “functional inverse agonists” and 2 nM.
On to `Cn1c(-c2ccc(Cl)cc2)nc2nc(-c3ccccc3Cl)c(-c3ccc(Cl)cc3)cc2c1=O` [Example 60, 7-(2-Chlorophenyl)-2,6-bis(4-chlorophenyl)-3-methylpyrido[2,3-d]pyrimidin-4(3H)-one], for which, in test [1], the EC50 was less than 15 nM and the “functional mode at CB1 receptor” value was “functional inverse agonists”. For the same compound, in test [2], the concentration for half-maximal inhibition (IC50) amounted to 4 nM.
For the compound `CC(C)(C)c1nc(C#N)c2cc(-c3ccc(C#N)cc3)c(-c3ccccc3Cl)nc2n1` [Example 69, 2-Tert-butyl-7-(2-chlorophenyl)-6-(4-cyanophenyl)pyrido[2,3-d]pyrimidine-4-carbonitrile], in test [1], the concentration giving a half-maximal response (EC50) was less than 15 nM and the “functional mode at CB1 receptor” value was “functional inverse agonists”. Besides, the IC50 in test [2] is 2 nM.
With `CC(C)(C)c1nc(-c2ccc(F)cc2)c2cc(-c3ccc(Cl)cc3)c(-c3ccccc3Cl)nc2n1` [Example 72, 2-Tert-butyl-7-(2-chlorophenyl)-6-(4-chlorophenyl)-4-(4-fluorophenyl)pyrido[2,3-d]pyrimidine], in test [1], the EC50 is less than 15 nM and the “functional mode at CB1 receptor” value is given as “functional inverse agonists”. Moreover, in test [2], the IC50 is 0.6 nM.
